Experimental data published in US20180104264A1, “Method for Preparing Lyophilized Organic Solvent-Free Cyclophosphamide” (KOREA UNITED PHARM. INC., priority 2016, published 2018).

Assay: Measurement of porosity (KOPTRI)
Type: physicochemical
Excerpt: Porosity measurement for the samples prepared by the present applicant was requested from the Korea Polymer Testing & Research Institute (KOPTRI), an authorized international testing agency.

O=P1(N(CCCl)CCCl)NCCCO1 (stereo not drawn) [Comparison 4, 2-[bis(2-chloroethyl)amino]tetrahydro-2H-1,3,2-oxazaphosphorin-2-oxide]
Apparent density: 1.31 g/mL
Porosity: 5.24%
Average diameter (pore size): 0.02 μm
